Measurements from patent publication US20250099461A1 (JAPANESE FOUNDATION FOR CANCER RESEARCH, priority 2021, published 2025).

Experiments:
EML4-ALK I1171N + F1174I = EML4-ALK I1171N + F1174I (Homo sapiens, UniProt Q9UM73, F1174I/I1171N); experiment: Ba/F3 cell viability, CellTiter-Glo
Description: (§1) Then, to search a drug overcoming these mutations, EML4-ALK I1171N+F1174I or EML4-ALK I1171N+L1198H was introduced into Ba/F3 cells (obtained from Riken BRC) and expressed therein. Using the expression cells and an inhibitor library mostly constituted of available kinase inhibitors, the cell-proliferation inhibitory effect was examined. Note that, the mutant gene-introduced cells to be used later were prepared by integrating a gene having a mutation into a lentiviral vector and introducing the vector into cells. The EML4-ALK fusion genes and mutants thereof to be used later were prepared based on the fusion genes disclosed in Non Patent Literature 1 unless otherwise specified.
(§2) The viable cells were counted 72 hours later in accordance with the CellTiter-Glo assay (Promega). The viability rates of cells are shown based on the number of viable cells when DMSO was added, as 100.

EML4-ALK WT = EML4-ALK WT (Homo sapiens, UniProt Q9UM73); experiment: Ba/F3 cell viability, CellTiter-Glo
Description: as §1, §2

EML4-ALK I1171N + L1198H = EML4-ALK I1171N + L1198H (Homo sapiens, UniProt Q9UM73, I1171N/L1198H); experiment: Ba/F3 cell viability, CellTiter-Glo
Description: as §1, §2

[1] = Ba/F3 cell viability, CellTiter-Glo; conditions: mouse
in vitro = conditions: mouse
[2] = tested on: BaF3 cells Parent (+IL-3); experiment: Ba/F3 cell viability, CellTiter-Glo; conditions: 50 nM, 72 hours, DMSO as 100, BaF3 Parent (+IL-3)
[3] = 50 nM, 72 hours, DMSO as 100, BaF3 EML4-ALK I1171N + F1174I, in %
[4] = 50 nM, 72 hours, DMSO as 100, BaF3 EML4-ALK WT, in %
[5] = 50 nM, 72 hours, DMSO as 100, BaF3 EML4-ALK I1171N + L1198H

SMILES	viability at 72 h, 0.05 µM ([1]; parental Ba/F3 cells (+IL-3)) [%]	viability rate of cells (EML4-ALK I1171N + F1174I; mouse, 72 h, 0.05 µM)	viability rate of cells (EML4-ALK WT; mouse, 72 h, 0.05 µM)	viability rate of cells (EML4-ALK I1171N + L1198H; mouse, 72 h, 0.05 µM) [%]	other results
COc1cc2c(Oc3ccc(NC(=O)C4(C(=O)Nc5ccc(F)cc5)CC4)cc3F)ccnc2cc1OCCCN1CCOCC1 [Foretinib]	77.9				viability rate of cells (EML4-ALK I1171N + F1174I; [3]): 100.2; viability rate of cells (EML4-ALK WT; [4]): 92.7; viability rate of cells (EML4-ALK I1171N + L1198H; [5]): 83.3%
COc1cc2ncnc(Nc3ccc(F)c(Cl)c3)c2cc1OCCCN1CCOCC1 [Gefitinib]		155.6	98.7	74.1	viability at 72 h, 0.05 µM (in vitro): 80.9%
Cc1ccc(NC(=O)c2ccc(CN3CCN(C)CC3)cc2)cc1Nc1nccc(-c2cccnc2)n1 [Imatinib]		116.1	69.4	87.8	viability at 72 h, 0.05 µM (in vitro): 81.6%
COc1cc2nccc(Oc3ccc(NC(=O)NC4CC4)c(Cl)c3)c2cc1C(N)=O [Lenvatinib]	81.6	114.2	91.8	89.9	
C[C@H]1Oc2cc(cnc2N)-c2c(nn(C)c2C#N)CN(C)C(=O)c2ccc(F)cc21 [Lorlatinib]	82.4				
C[C@]1(O)C[C@@H](c2nc(-c3ccc4ccc(-c5ccccc5)nc4c3)c3c(N)nccn32)C1 [OSI906]		138.9	149.7	86.8	viability at 72 h, 0.05 µM (in vitro): 105%
C=CC(=O)Nc1cc(Nc2nccc(-c3cn(C)c4ccccc34)n2)c(OC)cc1N(C)CCN(C)C [Osimertinib]		122.4	81.9	87.2	viability at 72 h, 0.05 µM [1]: 91.1%
Cc1ccc(C(=O)Nc2ccc(CN3CCN(C)CC3)c(C(F)(F)F)c2)cc1C#Cc1cnc2cccnn12 [Ponatinib]	64.8				viability rate of cells (EML4-ALK I1171N + F1174I; [3]): 122.1; viability rate of cells (EML4-ALK WT; [4]): 97.4; viability rate of cells (EML4-ALK I1171N + L1198H; [5]): 77.3%
Nc1nc(Nc2ccc3c(c2)CCC(N2CCCC2)CC3)nn1-c1cc2c(nn1)-c1ccccc1CCC2 (centres unmarked) [R428]					viability rate of cells (EML4-ALK I1171N + F1174I; [3]): 142.5; viability rate of cells (EML4-ALK WT; [4]): 99.7; viability rate of cells (EML4-ALK I1171N + L1198H; [5]): 85%; viability rate of cells [2]: 84.1%
CCN(CC)CCNC(=O)c1c(C)[nH]c(/C=C2\C(=O)Nc3ccc(F)cc32)c1C [Sunitinb]					viability rate of cells [2]: 83.1%
COc1cc2c(Nc3ccc(Br)cc3F)ncnc2cc1OCC1CCN(C)CC1 [Vandetanib]	97.8				
